Measurements taken from US11667945B2, “Detection method and detection probe for colibactin and colibactin-producing bacteria” (priority 2017, dated 2023).
Where a SMILES comes first, the peptide text is derived from it. [ ]: non-standard residue; d: D form. The star is where a group is joined. Myristoyl = CCCCCCCCCCCCCC(=O)*; AMC = Cc1cc(=O)oc2cc(N*)ccc12

Experiments:
[1] = system: enzyme encoded by ClbP gene; experiment: Detection of ClbP enzyme / colibactin-producing E. coli in lyophilized fecal samples by fluorescent probe (Example 3); format: biochemical, Escherichia coli; details: probe 20 μM, lyophilized human feces suspended in milliQ water, 37° C., 24 hours or more, after extraction and unextracted
Description: The feces samples (obtained from different 4 human subjects) lyophilized were each scooped 10 times by a spoon (about 40 mg) and suspended in milliQ water (200 μl). To the suspension, the 20 mM DMSO solution of probe 1 was added so as to obtain a final concentration of 20 μM (DMSO final concentration 0.1%). Thereafter, the suspension was shaken at 37° C. and 100 rpm for 24 hours or more. After the reaction, the reaction solution (200 μLS) was taken and centrifuged. The supernatant (200 μL) was directly subjected to detection performed at λex380 mm/λem460 mm (unextracted). The reaction solution (200 μL) was newly taken, sufficiently suspended by adding ethyl acetate (500 μL) and centrifuged. The ethyl acetate layer (450 μL) of the supernatant was collected and concentrated. To the concentrate, milliQ water (200 μL) was added. The mixture was sufficiently suspended and centrifuged. The supernatant (200 μL) was subjected to detection performed at λex380 mm/λem460 mm (after extraction). In FIG. 2, the detection results of 4 fecal samples are shown separately by “feces is present_1” to “feces is present_4”, respectively.

[2] = system: colibactin positive bacterium; experiment: Detection of colibactin positive bacterium among Escherichia coli separated from colorectal tissue samples (Example 5); format: cell-based; details: 100 μM probe in LB, 37° C., 24 hours, threshold 100; 100 PCR-positive and 100 PCR-negative samples
Excerpt: In this Example, detection of a colibactin positive bacterium was tried by applying probe I to Escherichia coli bacteria separated from colon tissue samples (n=100) in which colibactin biosynthetic genes had been detected by PCR methods and colon tissue samples (n=100) in which colibactin biosynthetic genes had not been detected.
Escherichia coli bacteria were separated by homogenizing a human colorectal tissue sample with physiological saline and smearing the homogenized sample onto a MacConkey plate medium, and culturing it. […] Based on the presence or absence of an amplified fragment as an index, a colibactin positive bacterium or not was evaluated.
To evaluate the sensitivity and accuracy for detecting a colibactin positive bacterium by probe I, 100 Escherichia coli bacterium samples were prepared by separating Escherichia coli bacterium from colon tissue samples in which a colibactin positive bacterium was detected by the above PCR method; and 100 Escherichia coli bacterium samples separated were prepared by separating Escherichia coli bacterium from colon tissue samples in which a colibactin positive bacterium was not detected by the above PCR method. […] Measurement at λex 380 mm/λem 460 mm was carried out by a plate reader. The difference in fluorescence intensity between assay A and assay B (background) was obtained and the threshold was determined as 100. […]

[3] = system: colibactin-producing Escherichia coli; experiment: Assay using cultured Escherichia coli, colibactin-producing versus non-producing strains (Example 4); format: cell-based; details: probe 20 μM in LB medium, 37° C., 24 hours or more, particularly after extraction; producers 5263, 5491, Nissle vs non-producers 1246, 1649T
Description: As Escherichia coli not producing colibactin, 1246 strain and 1649T strain were used. As the colibactin-producing Escherichia coli, 5263 strain, 5491 strain and Nissle strain were used.
Escherichia coli were cultured overnight and seeded (20 μL) in LB medium (2 to 4 mL) and further a 20 mM DMSO solution of probe 1 was added thereto so as to obtain a final concentration of 20 μM (DMSO final concentration: 0.1%), and cultured at 37° C. and 100 rpm for 24 hours or more while shaking. After reaction, the reaction solution (200 μL) was taken and centrifuged. The supernatant (200 μL) was directly subjected to detection performed at λex 380 mm/λem 460 mm (unextracted). The reaction solution (200 μL) was newly taken and ethyl acetate (500 μL) was added thereto. After sufficiently suspended, the suspension was centrifuged. The ethyl acetate layer (450 μL) of the supernatant was recovered and concentrated. To the concentrate, milliQ water (200 μL) was added. The mixture was sufficiently suspended and centrifuged. The supernatant (200 μL) was subjected to detection (after extraction) performed at λex 380 mm/λem 460 mm.

[4] = system: colibactin positive bacterium; experiment: Detection of colibactin positive bacterium using cultured fecal samples (Example 6); format: cell-based, Escherichia coli; details: colonies from human fecal samples, LB with 100 μM probe, 24 hours, λex 380 mm/λem 460 mm, compared with PCR
Description: Fecal samples obtained from human subjects were dissolved in water, applied to a plate comprising a MacConkey medium and cultured at 37° C. for 12 hours. The resultant red-purple colony was picked up, inoculated in LB liquid medium comprising 100 μM probe I and cultured for 24 hours. Fluorescence (λex 380 mm/λem 460 mm) was measured by a plate reader. These samples were checked for the presence or absence of a colibactin positive bacterium by a PCR method in the same manner as in Example 5 and the correlation with the fluorescence intensity generated from probe I was examined.

Compound	fluorescence of the probe on contact with feces (ClbP dependent cleavage to AMC) [1]	accuracy of detecting a colibactin positive bacterium [2]	false positive rate (a rate determining a negative bacterium as a positive bacterium) [2]	detection of colibactin-producing Escherichia coli based on the fluorescence intensity of the probe [3]	detection of colibactin positive bacterium present in fecal samples [4]
CCCCCCCCCCCCCC(=O)NC(CC(N)=O)C(=O)Nc1ccc2c(C)cc(=O)oc2c1 (stereo not drawn) [probe 1]	fluorescence was regained	100%	less than 1%	colibactin-producing Escherichia coli can be detected	highly sensitively and accurately detected
CCCCCCCCCCCCCC(=O)N[C@H](CC(N)=O)C(=O)N[C@@H](C)C(=O)Nc1ccc2c(C)cc(=O)oc2c1 [probe 2] (Myristoyl-[dN]-Ala-{AMC})	same results	–	–	–	–
